# Where two headings read alike, the source gives them in different places.
# Legend:
# [1] = target: STK3 (Homo sapiens (Human), UniProt Q13188); assay: ADP-Glo kinase assay, STK3; type: biochemical
# Description: (§1) The STK3 kinase assay was performed in 5 μL reaction buffer containing 50 ng recombinant human STK3 protein (full length, SignalChem #S24-10G; Richmond, Canada), 250 μg/mL myelin basic protein (Sigma-Aldrich #M1891; St. Louis, MO, USA), and 50 μM ATP (Sigma-Aldrich #A7699). The STK4 kinase assay was performed in 5 μL reaction buffer containing 50 ng recombinant human STK4 protein (full length, SignalChem #S25-10G), 300 μg/mL Axltide (SignalChem #A16-58), and 50 μM ATP. […] Three experiments were performed, each in triplicate.
# [2] = target: STK4 (Homo sapiens (Human), UniProt Q13043); assay: ADP-Glo kinase assay, STK4; type: biochemical
# STK4, sequence (Q13043 whole entry): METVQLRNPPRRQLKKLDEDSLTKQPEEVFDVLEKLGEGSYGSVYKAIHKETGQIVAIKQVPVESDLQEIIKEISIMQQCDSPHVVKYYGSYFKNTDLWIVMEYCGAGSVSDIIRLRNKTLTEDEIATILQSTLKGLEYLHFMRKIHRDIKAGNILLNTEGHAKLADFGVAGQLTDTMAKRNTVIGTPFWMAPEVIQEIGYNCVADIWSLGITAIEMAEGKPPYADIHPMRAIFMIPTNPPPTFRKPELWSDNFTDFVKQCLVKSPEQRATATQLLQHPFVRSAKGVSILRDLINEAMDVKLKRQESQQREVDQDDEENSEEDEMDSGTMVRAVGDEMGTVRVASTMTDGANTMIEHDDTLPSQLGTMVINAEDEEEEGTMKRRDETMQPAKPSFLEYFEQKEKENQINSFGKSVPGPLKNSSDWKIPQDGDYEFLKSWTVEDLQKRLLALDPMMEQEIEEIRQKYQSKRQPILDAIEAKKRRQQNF
# Description: as §1
# [3] = ADP-Glo, 50 μM ATP, read-out: STK3 IC50
# [4] = ADP-Glo, 50 μM ATP, read-out: STK4 IC50
# STK3, sequence (Q13188 whole entry): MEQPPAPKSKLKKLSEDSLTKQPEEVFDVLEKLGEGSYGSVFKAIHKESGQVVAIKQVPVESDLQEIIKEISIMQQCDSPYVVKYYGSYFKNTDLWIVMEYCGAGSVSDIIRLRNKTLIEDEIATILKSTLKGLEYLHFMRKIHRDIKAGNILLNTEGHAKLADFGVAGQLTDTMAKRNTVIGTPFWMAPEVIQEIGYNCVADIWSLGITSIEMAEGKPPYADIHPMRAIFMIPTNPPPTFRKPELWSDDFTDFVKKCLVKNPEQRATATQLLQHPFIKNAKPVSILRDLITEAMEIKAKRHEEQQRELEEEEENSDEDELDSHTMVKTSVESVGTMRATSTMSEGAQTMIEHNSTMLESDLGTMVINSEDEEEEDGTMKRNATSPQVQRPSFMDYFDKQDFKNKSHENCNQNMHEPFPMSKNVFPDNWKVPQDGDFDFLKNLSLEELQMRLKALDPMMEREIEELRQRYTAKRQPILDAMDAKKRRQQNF
Compound,"IC50 [1, 3] [µM]","IC50 [2, 4] [µM]",IC50 [1] [µM],IC50 [2] [µM]
"c1ccc(-c2c[nH]c3ncnc(N4CCOCC4)c23)cc1 [Compound 1, 4-(5-Phenyl-7H-pyrrolo[2,3-d]pyrimidin-4-yl)morpholine]",< 1,< 1,–,–
"Fc1ccccc1-c1c[nH]c2ncnc(N3CCOCC3)c12 [Compound 3, 4-(5-(2-Fluorophenyl)-7H-pyrrolo[2,3-d]pyrimidin-4-yl)morpholine]",< 1,–,–,–
"COc1ccccc1-c1c[nH]c2ncnc(N3CCOCC3)c12 [Compound 4, 4-(5-(2-Methoxyphenyl)-7H-pyrrolo[2,3-d]pyrimidin-4-yl)morpholine]",< 1,–,–,–
"COc1cccc(-c2c[nH]c3ncnc(N4CCOCC4)c23)c1 [Compound 8, 4-(5-(3-Methoxyphenyl)-7H-pyrrolo[2,3-d]pyrimidin-4-yl)morpholine]",< 1,–,–,–
"Cc1ccc(-c2c[nH]c3ncnc(N4CCOCC4)c23)cc1 [Compound 9, 4-(5-(p-tolyl)-7H-pyrrolo[2,3-d]pyrimidin-4-yl)morpholine]",–,–,1 to 5,–
"Fc1ccc(-c2c[nH]c3ncnc(N4CCOCC4)c23)cc1 [Compound 10, 4-(5-(4-Fluorophenyl)-7H-pyrrolo[2,3-d]pyrimidin-4-yl)morpholine]",< 1,–,–,–
"c1csc(-c2c[nH]c3ncnc(N4CCOCC4)c23)c1 [Compound 12, 4-(5-(Thiophen-2-yl)-7H-pyrrolo[2,3-d]pyrimidin-4-yl)morpholine]",< 1,–,–,–
"c1coc(-c2c[nH]c3ncnc(N4CCOCC4)c23)c1 [Compound 13, 4-(5-(Furan-2-yl)-7H-pyrrolo[2,3-d]pyrimidin-4-yl)morpholine]",< 1,–,–,–
"c1nc(N2CCOCC2)c2c(-c3ccoc3)c[nH]c2n1 [Compound 14, 4-(5-(Furan-3-yl)-7H-pyrrolo[2,3-d]pyrimidin-4-yl)morpholine]",< 1,–,–,–
"CN(C)c1ncnc2[nH]cc(-c3cccc(Cl)c3)c12 [Compound 17, 5-(3-Chlorophenyl)-N,N-dimethyl-7H-pyrrolo[2,3-d]pyrimidin-4-amine]",< 1,–,–,–
"Clc1cccc(-c2c[nH]c3ncnc(NCC4CC4)c23)c1 [Compound 18, 5-(3-Chlorophenyl)-N-(cyclopropylmethyl)-7H-pyrrolo[2,3-d]pyrimidin-4-amine]",< 1,–,–,–
"Clc1cccc(-c2n[nH]c3ncnc(N4CCOCC4)c23)c1 [Compound 19, 4-(3-(3-chlorophenyl)-1H-pyrazolo[3,4-d]pyrimidin-4-yl)morpholine]",–,–,1 to 5,1 to 5
"Clc1cccc(-c2csc3ncnc(N4CCOCC4)c23)c1 [Compound 20, 4-(5-(3-Chlorophenyl)thieno[2,3-d]pyrimidin-4-yl)morpholine]",> 5,–,–,–
"Clc1cccc(-c2coc3ncnc(N4CCOCC4)c23)c1 [Compound 21, 5-(3-Chlorophenyl)-4-morpholinofuro[2,3-d]pyrimidine]",> 5,–,–,–
"Clc1cccc(-c2c[nH]c3ccnc(N4CCOCC4)c23)c1 [Compound 22, 4-(3-(3-Chlorophenyl)-1H-pyrrolo[3,2-c]pyridin-4-yl)morpholin]",> 5,–,–,–
"FC(F)(F)Oc1ccc(-c2c[nH]c3ncnc(N4CCOCC4)c23)cc1 [Compound 28, 4-(5-(4-(trifluoromethoxy)phenyl)-7H-pyrrolo[2,3-d]pyrimidin-4-yl)morpholine]",1 to 5,1 to 5,–,–
"c1ncc(-c2c[nH]c3ncnc(N4CCOCC4)c23)cn1 [Compound 36, 4-(5-(pyrimidin-5-yl)-7H-pyrrolo[2,3-d]pyrimidin-4-yl)morpholine]",> 5,> 5,–,–
"COc1ncc(-c2c[nH]c3ncnc(N4CCOCC4)c23)cn1 [Compound 38, 4-(5-(2-methoxypyrimidin-5-yl)-7H-pyrrolo[2,3-d]pyrimidin-4-yl)morpholine]",> 5,> 5,–,–
"Cn1cc(-c2c[nH]c3ncnc(N4CCOCC4)c23)cn1 [Compound 41, 4-(5-(1-methyl-1H-pyrazol-4-yl)-7H-pyrrolo[2,3-d]pyrimidin-4-yl)morpholine]",1 to 5,< 1,–,–
"c1nc(N2CCOCC2)c2c(-c3cnoc3)c[nH]c2n1 [Compound 42, 4-(5-(isoxazol-4-yl)-7H-pyrrolo[2,3-d]pyrimidin-4-yl)morpholine]",1 to 5,< 1,–,–
"Cc1noc(C)c1-c1c[nH]c2ncnc(N3CCOCC3)c12 [Compound 43, 4-(5-(3,5-dimethylisoxazol-4-yl)-7H-pyrrolo[2,3-d]pyrimidin-4-yl)morpholine]",> 5,> 5,–,–
"Clc1cccc(-c2c[nH]c3ncnc(N4CCCC4)c23)c1 [Compound 44, 5-(3-chlorophenyl)-4-(pyrrolidin-1-yl)-7H-pyrrolo[2,3-d]pyrimidine]",< 1,< 1,–,–
"CC(=O)N1CCN(c2ncnc3[nH]cc(-c4cccc(Cl)c4)c23)CC1 [Compound 45, 1-(4-(5-(3-chlorophenyl)-7H-pyrrolo[2,3-d]pyrimidin-4-yl)piperazin-1-yl)ethan-1-one]",1 to 5,< 1,–,–
"Clc1cccc(-c2c[nH]c3ncnc(N4CCC4)c23)c1 [Compound 46, 4-(azetidin-1-yl)-5-(3-chlorophenyl)-7H-pyrrolo[2,3-d]pyrimidine]",1 to 5,1 to 5,–,–
"CN1CCN(c2ncnc3[nH]cc(-c4cccc(Cl)c4)c23)CC1 [Compound 47, 5-(3-chlorophenyl)-4-(4-methylpiperazin-1-yl)-7H-pyrrolo[2,3-d]pyrimidine]",1 to 5,1 to 5,–,–
"CCN1CCN(c2ncnc3[nH]cc(-c4cccc(Cl)c4)c23)CC1 [Compound 48, 5-(3-chlorophenyl)-4-(4-ethylpiperazin-1-yl)-7H-pyrrolo[2,3-d]pyrimidine]",> 5,> 5,–,–
"CCNc1ncnc2[nH]cc(-c3cccc(Cl)c3)c12 [Compound 49, 5-(3-chlorophenyl)-N-ethyl-7H-pyrrolo[2,3-d]pyrimidin-4-amine]",< 1,< 1,–,–
"CC1(O)CCN(c2ncnc3[nH]cc(-c4cccc(Cl)c4)c23)CC1 [Compound 103, 1-(5-(3-chlorophenyl)-7H-pyrrolo[2,3-d]pyrimidin-4-yl)-4-methylpiperidin-4-ol]",< 1,–,–,–
"CCN(CCO)c1ncnc2[nH]cc(-c3cccc(Cl)c3)c12 [Compound 114, 2-((5-(3-chlorophenyl)-7H-pyrrolo[2,3-d]pyrimidin-4-yl)(ethyl)amino)ethan-1-ol]",< 1,–,–,–

# Now from value to molecule, other results behind:
"IC50 [1, 3] [µM]","IC50 [2, 4] [µM]",Compound,IC50 [1] [µM],IC50 [2] [µM]
1 to 5,1 to 5,"Clc1ccccc1-c1c[nH]c2ncnc(N3CCOCC3)c12 [Compound 24, 4-(5-(2-Chlorophenyl)-7H-pyrrolo[2,3-d]pyrimidin-4-yl)morpholine]",–,–
< 1,1 to 5,"Clc1ccc(-c2c[nH]c3ncnc(N4CCOCC4)c23)cc1 [Compound 25, 4-(5-(4-Chlorophenyl)-7H-pyrrolo[2,3-d]pyrimidin-4-yl)morpholine]",–,–
1 to 5,< 1,"COc1ccc(-c2c[nH]c3ncnc(N4CCOCC4)c23)cc1 [Compound 26, 4-(5-(4-methoxyphenyl)-7H-pyrrolo[2,3-d]pyrimidin-4-yl)morpholine]",–,–
1 to 5,1 to 5,"FC(F)(F)Oc1cccc(-c2c[nH]c3ncnc(N4CCOCC4)c23)c1 [Compound 27, 4-(5-(3-(trifluoromethoxy)phenyl)-7H-pyrrolo[2,3-d]pyrimidin-4-yl)morpholine]",–,–
> 5,1 to 5,"CC(=O)c1ccc(-c2c[nH]c3ncnc(N4CCOCC4)c23)cc1 [Compound 29, 1-(4-(4-morpholino-7H-pyrrolo[2,3-d]pyrimidin-5-yl)phenyl)ethan-1-one]",–,–
1 to 5,1 to 5,"Clc1ccc(-c2c[nH]c3ncnc(N4CCOCC4)c23)cc1Cl [Compound 30, 4-(5-(3,4-dichlorophenyl)-7H-pyrrolo[2,3-d]pyrimidin-4-yl)morpholine]",–,–
1 to 5,1 to 5,"Clc1cc(-c2c[nH]c3ncnc(N4CCOCC4)c23)ccn1 [Compound 31, 4-(5-(2-chloropyridin-4-yl)-7H-pyrrolo[2,3-d]pyrimidin-4-yl)morpholine]",–,–
> 5,1 to 5,"Fc1cnc(Cl)cc1-c1c[nH]c2ncnc(N3CCOCC3)c12 [Compound 32, 4-(5-(2-chloro-5-fluoropyridin-4-yl)-7H-pyrrolo[2,3-d]pyrimidin-4-yl)morpholine]",–,–
> 5,> 5,"Fc1c(-c2c[nH]c3ncnc(N4CCOCC4)c23)ccnc1Cl [Compound 33, 4-(5-(2-chloro-3-fluoropyridin-4-yl)-7H-pyrrolo[2,3-d]pyrimidin-4-yl)morpholine]",–,–
> 5,> 5,"Clc1ncccc1-c1c[nH]c2ncnc(N3CCOCC3)c12 [Compound 34, 4-(5-(2-chloropyridin-3-yl)-7H-pyrrolo[2,3-d]pyrimidin-4-yl)morpholine]",–,–
> 5,> 5,"c1cc(-c2c[nH]c3ncnc(N4CCOCC4)c23)ccn1 [Compound 35, 4-(5-(pyridin-4-yl)-7H-pyrrolo[2,3-d]pyrimidin-4-yl)morpholine]",–,–
> 5,> 5,"Cc1cnccc1-c1c[nH]c2ncnc(N3CCOCC3)c12 [Compound 37, 4-(5-(3-methylpyridin-4-yl)-7H-pyrrolo[2,3-d]pyrimidin-4-yl)morpholine]",–,–
> 5,> 5,"CS(=O)(=O)c1cccc(-c2c[nH]c3ncnc(N4CCOCC4)c23)c1 [Compound 39, 4-(5-(3-(methylsulfonyl)phenyl)-7H-pyrrolo[2,3-d]pyrimidin-4-yl)morpholine]",–,–
> 5,> 5,"CS(=O)(=O)c1ccc(-c2c[nH]c3ncnc(N4CCOCC4)c23)cc1 [Compound 40, 4-(5-(4-(methylsulfonyl)phenyl)-7H-pyrrolo[2,3-d]pyrimidin-4-yl)morpholine]",–,–

# — US20250051337A1 (priority 2021, published 2025)
